Experimental data: patent EP0859230A1, “Detection of analytes using electrochemistry” (priority 1997, dated 1998)

Assays:
[1] = test system: PBP (penicillin binding protein); assay: Competitive inhibition assay: penicillin vs 7-ACA-GOD on PBP-coated nitrocellulose strips, amperometric detection in flow cell; settings: CV in percent in brackets; for Velocity (nA sec^1) Mean: over 200 sec; for Absolute response (µA) Mean (CV): over 500 sec
Experimental: Strips of nitrocellulose membrane were cut to the exact size of 0.4 x 0.9 cm. Strips were soaked in a solution of 5 mg/ml PBP (penicillin binding protein) in buffer (0.1M phosphate buffered saline (PBS), pH 7.4). The strips were left to soak for 1 hour at ambient temperature.
After incubation, strips were blocked in a 2% w/v bovine serum albumin (BSA) solution in PBS buffer (pH 7.4) for 1 hour at ambient temperature.
Individual strips were removed from the blocking solution and incubated for 5 minutes at 64°C in a 1:2000 dilution of 7-ACA-GOD stock solution in whole milk with or without free analyte (penicillin G) present.
Strips were washed for 20 seconds in PBS and placed onto the working electrode of the screen-printed sensor card.
The card was mounted into the flow cell or flowing liquid system and a 0.1M PBS solution was introduced, pumped at a constant rate through the flow cell. The working electrode was poised at a potential of +350 mV and the system allowed to achieve electrochemical equilibrium. A 0.1M glucose solution in 0.1M PBS/0.1M KCl was then pumped into the system. The flow was halted after 60 seconds. The electrochemical response of the system was monitored throughout this period.
Results can be expressed as total current increase in µA over a given time interval or can be interpreted as current increase per unit time (µA/sec).
Nitro-cellulose strips were prepared in two separate batches. […] Responses are also recorded as 'velocities' whereby the maximum current versus time slope is measured during the period of glucose flow across the working electrode surface (expressed as nA/sec). Results are also expressed as a percentage of the signal of the zero ppb penicillin positive control, that is, the zero inhibited response that therefore yields a 100% response value.

[2] = test system: monoclonal anti-gentamycin antibody; assay: Competitive flow-cell electrochemical immunoassay: free gentamycin vs gentamycin-GOD conjugate in milk; format: binding
Experimental: Strips of nitrocellulose were cut to the exact size of 0.4 x 0.9 cm. Strips were soaked in a solution of 5 µg/ml of monoclonal anti-gentamycin antibody in PBS buffer pH 7.4, for 1 hour at ambient temperature.
After incubation, strips were blocked in a 2% w/v BSA solution in PBS(pH 7.4) for 1 hour at ambient temperature.
Individual strips were removed from the blocking solution and mounted onto the working electrode surface, thus creating a complete sensor card.
Sensor cards were mounted into the flow cell, the strip of nitrocellulose being held in place by a rubber seal, used to prevent leakage during operation of the flow cell device.
One ml samples of milk were aliquoted, to which were added 25 µl of a: 1:1000 (A), 1:2000 (B) or 1:2500 (C) dilution of gentamycin-GOD conjugate (prepared with state of the art procedures).
Free gentamycin was then added to each milk sample, yielding solutions having gentamycin concentrations varying between 0 and 1000 ppb.
A pumping device was connected to the flow cell and the prepared milk samples were each tested with a new sensor card mounted in place.
The flow rate through the system was adjusted so that the complete milk sample passed through the system over a 3 minute time period. A 1 minute wash step was then performed with 0.1 % w/v Tween in 0.1M PBS (pH 7.4). Immediately after each wash step, 0.5M glucose in 0.1M PBS/ 0.1M KCl was passed through the flow cell and the electrochemical responses generated were recorded both as absolute values and as initial response-time velocities in nA/sec.
A 1:10 dilution of the MoAb stock solution was used to coat the nitro-cellulose strips. Gentamycin-glucose oxidase conjugate concentrations were varied from 1:4000 (exp.A) to 1:8000 (exp.B) to 1:10 000 (exp. C).

[3] = test system: Antigentamycin; assay: End-point competitive microtiter plate assay with gentamycin-GOD, hydrogen peroxide peak measured in flow cell; format: binding; settings: gentamycin concentrations as low as 5 ppb; 1:10 000 dilution of gentamycin-GOD conjugate
Experimental: The immunological reaction step is performed in a microtiter plate. Using GOD as the enzyme label, the final microtiter well solution will contain hydrogen peroxide, the amount of which is inversely proportional to the amount of free gentamycin present in the sample under uniform conditions (competitive assay approach). This solution is pumped through the flow cell yielding a current peak, the magnitude of which is directly proportional to the amount of hydrogen peroxide present. Since no enzyme label is present in the final solution, no further hydrogen peroxide generation occurs after removal of solution from the microtiter well, thus current peaks, as opposed to current steps are observed on liquid passage through the flow cell.
Microtiter plates were coated in carbonate/bicarbonate buffer pH 9.6 for 1 hour at 37°C, then washed and blocked with 0.5% w/v gelatin in PBS buffer pH 7.4. Plates were either used directly or stored at 4°C until required.
Primary incubations with gentamycin-GOD, with or without free gentamycin, and in milk or buffer (PBS pH 7.4) were performed for 1 hour at 37°C. Gentamycin-GOD concentrations were varied between 1:1000 and 1:20 000. […]
After a given time period for substrate conversion, 150 µl of solution was pumped through the flow cell using a peristaltic pump set at a constant flow rate of 300 µl/min. Responses were measured as peak heights in nA or mA. […]

[4] = Batch 1, penicillin 100 ppb in whole milk, n=2
[5] = Batch 2, penicillin 10 ppb in whole milk, n=3
[6] = Batch 2, penicillin 100 ppb in whole milk, n=2
[7] = Overall, penicillin 100 ppb in whole milk, n=4
[8] = Exp. A (conjugate 1:4000), gentamycin 10 ppb in milk, duplicate
[9] = Exp. A (conjugate 1:4000), gentamycin 100 ppb in milk, duplicate
[10] = Exp. A (conjugate 1:4000), gentamycin 1000 ppb in milk, duplicate
[11] = Exp. B (conjugate 1:8000), gentamycin 10 ppb in milk, duplicate
[12] = Exp. B (conjugate 1:8000), gentamycin 100 ppb in milk, duplicate
[13] = Exp. C (conjugate 1:10 000), gentamycin 10 ppb in milk, triplicate
[14] = Exp. C (conjugate 1:10 000), gentamycin 100 ppb in milk, triplicate

CC1(C)S[C@@H]2[C@H](NC(=O)Cc3ccccc3)C(=O)N2[C@H]1C(=O)O [Penicillin, penicillin G]
Velocity (nA sec^1) Mean [1, 4]: 0.209 (12.6) nA sec^1
Absolute response (µA) Mean (CV) [1, 4]: 0.087 (35.8) µA
Velocity (nA sec^1) Mean [1, 5]: 0.151 (32.0) nA sec^1
Absolute response (µA) Mean (CV) [1, 5]: 0.064 (17.7) µA
Velocity (nA sec^1) Mean [1, 6]: 0.062 (5.7) nA sec^1
Absolute response (µA) Mean (CV) [1, 6]: 0.026 (21.8) µA
Absolute response (µA) Mean (CV) ([1]; Overall (batch 1 + batch 2), penicillin 10 ppb in whole milk, n=3): 0.064 (17.7) µA
Velocity (nA sec^1) Mean ([1]; Overall, penicillin 10 ppb in whole milk, n=3): 0.151 (32.0) nA sec^1
Velocity (nA sec^1) Mean [1, 7]: 0.135 (64.9) nA sec^1
Absolute response (µA) Mean (CV) [1, 7]: 0.057 (70.2) µA

gentamycin
Absolute response (µA) Mean value [2, 8]: 3217 µA
Velocity (nA sec^1) Mean value [2, 8]: 36.0 nA sec^1
Absolute response (µA) Mean value [2, 9]: 3050 µA
Velocity (nA sec^1) Mean value [2, 9]: 22.7 nA sec^1
Absolute response (µA) Mean value [2, 10]: 1350 µA
Velocity (nA sec^1) Mean value [2, 10]: 8.7 nA sec^1
Absolute response (µA) Mean value [2, 11]: 2438 µA
Velocity (nA sec^1) Mean value [2, 11]: 18.0 nA sec^1
Absolute response (µA) Mean value [2, 12]: 2025 µA
Velocity (nA sec^1) Mean value [2, 12]: 14.3 nA sec^1
Absolute response (µA) Mean value [2, 13]: 1868 µA
Velocity (nA sec^1) Mean value [2, 13]: 10.8 nA sec^1
Absolute response (µA) Mean value [2, 14]: 1333 µA
Velocity (nA sec^1) Mean value [2, 14]: 6.0 nA sec^1
inhibition of the positive signal [3]: Considerable inhibition
